Values joined by “and” are separate entries in the source; they are usually repeats but may differ in a detail not shown here. Equal entries are not always repeated.
Legend:
Format in all cases: biochemical
[1] = molecular target: T1, thrombin mutant R101A (Homo sapiens, UniProt P00734, R461A); assay: Inhibition of thrombin mutant R101A; conditions: pH 7.4, 25 °C
T1 construct: a group of thrombin mutants containing replacement of either Arg or Lys present in exosite 2 to Ala
Description: (§1) Chromogenic substrate hydrolysis assay was used to measure potency of inhibition, as previously reported. The assay was performed using Flexstation III (Molecular Devices, Sunnyvale, CA) by monitoring substrate hydrolysis at 405 nm. For thrombin and its mutants, 180 μL of buffer (20 mM Tris-HCl, 100 mM NaCl, 2.5 mM CaCl2, 0.1% (polyethylene glycol) PEG 8000, pH 7.4) was added to each well followed by 5 μL of 240 nM thrombin and 10 μL of sulfated coumarin in DMSO to give 0.002 to 250 μM final concentration (or 10 μL of DMSO alone). After incubation for 10 min at 25 °C, 5 μL of 2 mM Spectrozyme TH was added to each well simultaneously and allowed to react for 60 seconds at 25 °C while simultaneously monitoring the reaction to obtain the rate of increase in A405. Identical experimental conditions were used for reactions in the presence of antithrombin, except for 100 nM of antithrombin added prior to the addition of the substrate.

[2] = molecular target: T2, thrombin mutant R173A (Homo sapiens, UniProt P00734, R541A); assay: Inhibition of thrombin mutant R173A; conditions: pH 7.4, 25 °C
T2 construct: a group of thrombin mutants containing replacement of either Arg or Lys present in exosite 2 to Ala
Description: as §1

[3] = molecular target: T3, thrombin (Homo sapiens, UniProt P00734); assay: Chromogenic substrate hydrolysis assay, thrombin inhibition (Spectrozyme TH); design: 6 nM plasma α-thrombin; purchased Haematologic Technologies (Essex Junction, VT); conditions: pH 7.4, 25 °C
Description: as §1
(§2) For factor XIa inhibition studies, 85 μL of buffer (50 mM Tris-HCl, 150 mM NaCl, 0.1% PEG 8000, 0.02% Tween 80, pH 7.4) was added to each well, followed by 7 μL of 15.3 nM enzyme and 3 μL of sulfated coumarin (3.75–500 μM final concentration) and incubated for 10 min at 37 °C. After the incubation period, 5 μL of 6.9 mM S-2366 was added to each well simultaneously and allowed to react for 300 sec at 37 °C. For factor Xa assay, 180 μL of buffer (20 mM Tris-HCl, 100 mM NaCl, 2.5 mM CaCl2, 0.1% PEG 8000, 0.02% Tween 80, pH 7.4) was added to each well followed by 5 μL of 43.5 nM enzyme, 10 μL of sulfated coumarin (0.002–250 μM final concentration). After a 10 min incubation, 5 μL of 5 mM Spectrozyme FXa was added to each well simultaneously and allowed to react for 300 seconds at 37 °C. The slopes generated from each experiment were used to calculate the fractional residual activity (Y) at each concentration of the inhibitor, and analyzed using logistic equation 1, in which YM is the maximum efficacy, Y0 is minimum efficacy and HS is the Hill slope.

[4] = molecular target: T3, thrombin; assay: Thrombin inhibition in the presence of exosite 1 (HirP) and exosite 2 (UFH) ligands; design: 6 nM plasma α-thrombin; purchased Haematologic Technologies (Essex Junction, VT)
Description: Thrombin inhibition by 3g was examined in the presence of either HirP (exosite 1 ligand) or UFH (exosite 2 ligand). 3g was prepared in DMSO (0.010–50 μM) and thrombin (4–8 nM) were incubated at 25 °C with HirP (0–187 nM) or UFH (0–22.8 μM) in buffer (20 mM Tris-HCl, 100 mM NaCl, 2.5 mM CaCl2, 0.1% PEG 8000, pH 7.4). After 10 min, thrombin activity was measured using Spectrozyme TH hydrolysis assay, as described above. The slopes obtained (in triplicate) were fitted using equation 1 to calculate IC50,app, ∆Y, and HS. The IC50,app at each concentration of the competitor was also calculated using the Dixon-Webb relationship (equation 3) from the known affinities (Kcomp) of the competitor.

[5] = molecular target: T4, thrombin mutant R233A (Homo sapiens, UniProt P00734, R608A); assay: Inhibition of thrombin mutant R233A; conditions: pH 7.4, 25 °C
T4 construct: a group of thrombin mutants containing replacement of either Arg or Lys present in exosite 2 to Ala
Description: as §1

[6] = molecular target: T5, factor Xa (Homo sapiens, UniProt P00742); assay: Chromogenic substrate hydrolysis assay, factor Xa inhibition (Spectrozyme FXa)
T5 construct: antithrombin, factor Xa and factor XIa were from Haematologic Technologies; purchased Haematologic Technologies (Essex Junction, VT); host or cells: human plasma
Description: as §2

[7] = test system: recombinant human thrombins; assay: Inhibition of recombinant thrombins (wild type and exosite 2 mutants, summary statements)
Description: as §1

T5 sequence (P00742 235-488 limits assumed): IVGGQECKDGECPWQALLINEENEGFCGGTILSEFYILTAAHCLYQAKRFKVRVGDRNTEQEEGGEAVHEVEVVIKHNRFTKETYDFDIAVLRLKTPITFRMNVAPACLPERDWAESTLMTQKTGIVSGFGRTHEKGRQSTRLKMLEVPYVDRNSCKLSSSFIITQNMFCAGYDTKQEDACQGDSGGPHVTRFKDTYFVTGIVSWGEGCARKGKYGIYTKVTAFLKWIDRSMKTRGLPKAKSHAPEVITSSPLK
T5 sequence (P00742 41-179 limits assumed): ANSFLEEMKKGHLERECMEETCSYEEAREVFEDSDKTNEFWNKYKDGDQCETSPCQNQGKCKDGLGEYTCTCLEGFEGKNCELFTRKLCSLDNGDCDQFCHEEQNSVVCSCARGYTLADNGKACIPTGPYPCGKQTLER

O=c1oc2cc(OCCCCn3cc(COc4ccc(-c5c(-c6ccccc6)c6cc(Cl)cc(Cl)c6oc5=O)cc4)nn3)ccc2c(-c2ccccc2)c1-c1ccc(OS(=O)(=O)O)cc1 [3g]
HS [1]: 2.5
IC50 [1]: 255 ± 50 nM
ΔY [1]: 35 ± 4%
HS [2]: 2.0
IC50 [2]: 522 ± 90 nM
ΔY [2]: 36 ± 3%
Hill slope (HS) of thrombin inhibition [3]: 1.2
efficacy of thrombin inhibition (ΔY) ([3]; at saturation): 47% and 50%
IC50 ([3]; read-out: IC50 against thrombin): 180 nM
IC50 ([4]; [HirP] 0 nM, Dixon-Webb relationship, read-out: IC50,predicted): 240 nM
HS ([4]; [HirP] 0 nM, pH 7.4, 25 °C): 3.3
ΔY ([4]; [HirP] 0 nM, pH 7.4, 25 °C): 52 ± 2%
IC50 ([4]; [HirP] 0 nM, pH 7.4, 25 °C, read-out: IC50,app): 220 ± 20 nM
IC50 ([4]; [HirP] 25 nM, Dixon-Webb relationship, read-out: IC50,predicted): 450 nM
HS ([4]; [HirP] 25 nM, pH 7.4, 25 °C): 2.4
ΔY ([4]; [HirP] 25 nM, pH 7.4, 25 °C): 58 ± 1%
IC50 ([4]; [HirP] 25 nM, pH 7.4, 25 °C, read-out: IC50,app): 330 ± 20 nM
IC50 ([4]; [HirP] 187 nM, Dixon-Webb relationship, read-out: IC50,predicted): 670 nM
HS ([4]; [HirP] 187 nM, pH 7.4, 25 °C): 2.0
ΔY ([4]; [HirP] 187 nM, pH 7.4, 25 °C): 59 ± 6%
IC50 ([4]; [HirP] 187 nM, pH 7.4, 25 °C, read-out: IC50,app): 330 ± 60 nM
IC50 ([4]; [UFH] 0 μM, Dixon-Webb relationship, read-out: IC50,predicted): 170 nM
HS ([4]; [UFH] 0 μM, pH 7.4, 25 °C): 1.3
ΔY ([4]; [UFH] 0 μM, pH 7.4, 25 °C): 56 ± 3%
IC50 ([4]; [UFH] 0 μM, pH 7.4, 25 °C, read-out: IC50,app): 170 ± 20 nM
IC50 ([4]; [UFH] 11.4 μM, Dixon-Webb relationship, read-out: IC50,predicted): 290 nM
HS ([4]; [UFH] 11.4 μM, pH 7.4, 25 °C): 1.7
ΔY ([4]; [UFH] 11.4 μM, pH 7.4, 25 °C): 66 ± 5%
IC50 ([4]; [UFH] 11.4 μM, pH 7.4, 25 °C, read-out: IC50,app): 290 ± 30 nM
IC50 ([4]; [UFH] 22.8 μM, Dixon-Webb relationship, read-out: IC50,predicted): 450 nM
HS ([4]; [UFH] 22.8 μM, pH 7.4, 25 °C): 3.7
ΔY ([4]; [UFH] 22.8 μM, pH 7.4, 25 °C): 59 ± 3%
IC50 ([4]; [UFH] 22.8 μM, pH 7.4, 25 °C, read-out: IC50,app): 580 ± 30 nM
increase of IC50 in the presence of HirP ([4]; exosite 1 ligand HirP): 50%
HS [5]: 2.0
IC50 [5]: 359 ± 70 nM
ΔY [5]: 33 ± 4%
selectivity for thrombin in comparison to factor Xa [6]: ~ 800 fold
IC50 ([6]; pH 7.4, 37 °C, read-out: IC50 against factor Xa): > 30000 nM
increase of IC50 in comparison to recombinant wild-type thrombin ([7]; mutants K236A, K235A, R173A and K169A): < 1.4 fold
maximal inhibition efficacies ([7]; range over all recombinant thrombins studied): 28 to 64%
